Measurements taken from patent US8710068B2, “Method of treating cancer using a survivin inhibitor” (The Trustees Of The University Of Pennsylvania, priority 2009, dated 2014).

What was measured:
[1] = tested on: AsPC1 pancreatic cancer cells; experiment: MTT tumor cell proliferation assay, AsPC1; format: cell-based, human; details: AsPC1, 5, 10, 20, or 50 μg/ml for 48 hours
Experimental: (§1) FIG. 3 illustrates the effect of S2 and its analogs on tumor cell proliferation. Cells were treated with DMSO or Survivin targeting molecules at the indicated concentration for 48 hours. The percentage of viable cells was evaluated by MTT assay. (A) AsPC1; (B) HeLa; (C) SKBR3; (D) DAOY.
(§2) FIG. 18 illustrates the effect of SBDO3, SN2, or SDC1 on tumor cell proliferation. (A) AsPC1 cells were treated with DMSO or the Survivin targeting molecules SBDO3 or SN2 at the indicated concentration for 48 hours. (B) SKBR3 cells were treated with DMSO or SDC1 for 48 hours. The percentage of viable cells was evaluated by MTT assay.
(§3) S2 and its analogs (S10, S11, S12, and S13) were tested for the ability to inhibit tumor cell proliferation by MTT assay. The AsPC1 pancreatic cancer cells were treated with DMSO, a control molecule SC2, or the Survivin-targeting compounds at the concentration of 5, 10, 20, or 50 μg/ml for 48 hours. The number of viable cells was evaluated by MTT.
(§4) SBDO3, SN2 and SDC1 were tested for the ability to inhibit tumor cell proliferation by MTT assay. The AsPC1 pancreatic cancer cells were treated with DMSO or the Survivin-targeting compounds at the concentration of 5, 10, 20, or 50 μg/ml for 48 hours. The number of viable cells was evaluated by MTT.

HeLa cells [2] = experiment: Cell cycle analysis of DNA content by PI staining and FACS, HeLa; format: cell-based, human; details: for accumulation of cells in the G2/M stage: HeLa, 15 hours, FACS DNA content; for block of cells in mitosis: FACS analysis and immunofluorescence studies
Experimental: FIG. 7 illustrates the effect of S2 or S12 on cell cycle progression. HeLa cells were treated with S2, S12, S10, S1 (control compound), or DMSO (control), propidium iodide (PI) staining and FACS analysis were performed to quantify the DNA content of cells.
FIG. 9 illustrates the effect of S12 on mitosis. (A) HeLa cells were treated with S12, S2 or DMSO for 15 hours. The cells were then fixed and subjected to immunostaining using antibodies specific for Aurora B (green) and Survivin (red). DNA was stained with DAPI. Chromosome misalignment is indicated with the arrowheads. (B) Percentage of S12-treated cells in mitosis, in metaphase, in anaphase/telophase, or with misaligned chromosomes. (C) Percentage of S2-treated cells in mitosis, in metaphase, in anaphase/telophase, or with misaligned chromosomes. (D) HeLa cells were treated with S12 (10 μg/ml) or DMSO (control) for 15 hours. Cells were examined by PI staining of DNA content by FACS analysis.
FIG. 17 illustrates (A) FACS analysis of DNA content of HeLa cells treated with SBDO3. Note the accumulation of cells at the G2/M stage. Cell death was also observed (sub-G1 population); (B) Immuno-fluorescence microscopy analysis of cell treated with SBDO3. Note that the microtubule bundles of the mitotic spindle are disorganized. The chromosomes are not aligned properly and cells cannot go through metaphase.
The candidate Survivin-targeting molecules identified by the virtual screen were examined for the ability to inhibit cell proliferation and mitosis. HeLa cells were treated with the compounds at various concentrations for 15 hours followed by examination of the DNA content by FACS analysis. […] The effects of S2 inflicted on cell proliferation and viability are consistent with the anticipated outcome caused by the ablation of Survivin functions. We have extended these studies to test a number of molecules that are structurally similar to S2, including S10, S11, S12 and S13. […] S12 affected cell proliferation and viability, consistent with the anticipated outcome caused by ablation of Survivin functions.
We analyzed distribution of cells in the different stages of the cell cycle by FACS. […] In addition, the inhibitory effect of SBDO3 is dose dependent (FIG. 17A).
We also conducted immuno-fluorescence studies on SBDO3 treated HeLa cells.

Survivin protein = target: T1, Survivin protein (Homo sapiens, UniProt O15392); experiment: Isothermal titration calorimetry (ITC) binding to native Survivin; details: ITC, in words
T1 construct: made in house; host or cells: bacteria
Experimental: FIG. 5 illustrates an analysis of S12-Survivin binding with isothermal titration calorimetry (ITC). Single-site point mutagenesis was performed to create the Survivin mutants F86A and V89Y. The native and the mutant proteins were produced and purified from bacteria.
FIG. 16 illustrates the isothermal titration calorimetry profile of the binding of SBDO3 to the Survivin homodimer.
In order to examine the specificity of the binding, we generated point mutations on the Survivin protein at the site presumably targeted by S12. The two mutations were substitutions of phenylalanine 86 with alanine (F86A) and valine 89 with tyrosine (V89Y). These two altered sites are also adjacent to the interface involved in dimerization of the Survivin protein. Based on structural analyses, we predict that alterations of either of these two amino acid residues may abolish the binding of S12 without affecting the overall structure of the Survivin protein.
We tested the binding of the Survivin target molecules to Survivin by isothermal titration calorimetry.

SKBR3 breast cancer cell = experiment: MTT tumor cell proliferation assay, SKBR3; format: cell-based, human; details: SKBR3, 48 hours
Experimental: as §1, §2, §3, §4

HeLa cells [3] = experiment: BrdU incorporation DNA synthesis assay (FACS), HeLa; format: cell-based, human; details: 4 hours treatment then one-hour BrdU
Experimental: BrdU-labeled cells were analyzed by FACS. The percentage of BrdU-positive cells is indicated.
HeLa cells were treated with S12, aphidicolin, or DMSO (control) for 4 hours. BrdU was then added to the medium followed by an additional incubation of 1 hour. The amount of BrdU was examined by staining with anti-BrdU antibody and FACS analysis. The percentage of BrdU-positive cells is shown.
To establish the specificity of the biological activities of the Survivin targeting we examined whether the compounds affect DNA synthesis. HeLa cells were treated with Aphidicolin, S2 or DMSO for 4 hours, followed by one-hour incubation with BrdU. The cells were then collected, fixed and stained with FITC-labeled anti-BrdU antibody.

T1 sequence (O15392 whole entry): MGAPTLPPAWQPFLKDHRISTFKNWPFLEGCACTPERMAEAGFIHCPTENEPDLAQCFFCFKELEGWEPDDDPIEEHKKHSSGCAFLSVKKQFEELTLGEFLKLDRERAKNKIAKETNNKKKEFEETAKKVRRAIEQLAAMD

Structure (SMILES) | inhibition of cell proliferation / cell viability [1] | accumulation of cells in the G2/M stage (HeLa cells [2]) | binding to the Survivin protein (Survivin protein) | inhibition of proliferation (SKBR3 breast cancer cell) | block of cells in mitosis (HeLa cells [2]) | DNA synthesis (BrdU incorporation) (HeLa cells [3])
O=C(CC1(O)C(=O)Nc2ccc(Br)cc21)c1cccc([N+](=O)[O-])c1 (stereo not shown) [S11] | can inhibit cell proliferation and reduce cell viability in a dose-dependent manner | exhibit the ability to arrest the cells at the G2/M stage | – | – | – | –
O=C(O)c1ccccc1C(=O)c1ccc(Sc2ccccc2)c([N+](=O)[O-])c1 [SDC1] | can inhibit cell proliferation and reduce cell viability in a dose-dependent manner | – | can bind to the Survivin protein | can inhibit proliferation | can also block cells in mitosis | –
O=C(CC1(O)C(=O)Nc2ccc(Br)cc21)c1ccc(F)cc1 (stereo not shown) [S10] | can inhibit cell proliferation and reduce cell viability in a dose-dependent manner | exhibit the ability to arrest the cells at the G2/M stage | – | – | – | –
O=C(CC1(O)C(=O)Nc2ccccc21)c1ccccc1 (stereo not shown) [S13] | can inhibit cell proliferation and reduce cell viability in a dose-dependent manner | exhibit the ability to arrest the cells at the G2/M stage | – | – | – | –
C[C@@]1(CO)[C@H](O)CC[C@@]2(C)[C@H]1CC[C@H]1C[C@@H]3C[C@@]12CC[C@]3(O)CO [aphidicolin, reference compound] | – | – | – | – | – | inhibits DNA replication
COc1ccc(C2C(C#N)=C(N)OC3=C2C(=O)CC(C)(C)C3)cc1OCc1ccccc1 (stereo not shown) [SN2] | can inhibit cell proliferation and reduce cell viability in a dose-dependent manner | – | – | – | can also block cells in mitosis | –
